From US6365572B1, “Low molecular weight peptide derivatives as inhibitors of the laminin/nidogen interaction” (Aventis Pharma Deutschland GmbH, priority 1999, dated 2002)
Starred links: 1 amine or outer side, 2 acyl side, 3 side chain; linkers in the order of their positions; H or OH if unused. Non-standard residues stand in square brackets, D forms with d. Residues, ends and D or L forms follow the SMILES beside them. *: point of attachment. X2 = O=C([C@@H]1[C@H](c2ccccc2)CCN1[*:1])[*:2]; Pro(3R-Ph) = O=C(O)[C@H]1NCC[C@@H]1c1ccccc1; Dip = N[C@H](C(=O)O)C(c1ccccc1)c1ccccc1; 2Nal = N[C@@H](Cc1ccc2ccccc2c1)C(=O)O; d2Nal = N[C@H](Cc1ccc2ccccc2c1)C(=O)O; βAsp = O=C(O)[C@H](CC(=O)[*:2])N[*:1]; Glutaryl = O=C(CCCC(=O)[*:2])[*:1]; hPhe = N[C@@H](CCc1ccccc1)C(=O)O; 3Pal = N[C@@H](Cc1cccnc1)C(=O)O; Cit = NC(=O)NCCC[C@H](N)C(=O)O; NH(3-hydroxypropyl) = OCCCN*; Suc = O=C(CCC(=O)[*:2])[*:1]; Tle = CC(C)(C)[C@H](N)C(=O)O; X1 = CC(=O)c1ccccc1C(=O)*

Each compound was assayed against T1, laminin/nidogen interaction (laminin P1, recombinantly produced human nidogen) (Homo sapiens, UniProt P14543) (assay: HTS screening assay (time-resolved fluorescence), inhibition of laminin/nidogen binding). Details: results table 1.3, synthesized compounds 1 to 43; read-out: IC50.
T1 construct: made in house; host or cells: HEK-293
T1 sequence (P14543 29-1247): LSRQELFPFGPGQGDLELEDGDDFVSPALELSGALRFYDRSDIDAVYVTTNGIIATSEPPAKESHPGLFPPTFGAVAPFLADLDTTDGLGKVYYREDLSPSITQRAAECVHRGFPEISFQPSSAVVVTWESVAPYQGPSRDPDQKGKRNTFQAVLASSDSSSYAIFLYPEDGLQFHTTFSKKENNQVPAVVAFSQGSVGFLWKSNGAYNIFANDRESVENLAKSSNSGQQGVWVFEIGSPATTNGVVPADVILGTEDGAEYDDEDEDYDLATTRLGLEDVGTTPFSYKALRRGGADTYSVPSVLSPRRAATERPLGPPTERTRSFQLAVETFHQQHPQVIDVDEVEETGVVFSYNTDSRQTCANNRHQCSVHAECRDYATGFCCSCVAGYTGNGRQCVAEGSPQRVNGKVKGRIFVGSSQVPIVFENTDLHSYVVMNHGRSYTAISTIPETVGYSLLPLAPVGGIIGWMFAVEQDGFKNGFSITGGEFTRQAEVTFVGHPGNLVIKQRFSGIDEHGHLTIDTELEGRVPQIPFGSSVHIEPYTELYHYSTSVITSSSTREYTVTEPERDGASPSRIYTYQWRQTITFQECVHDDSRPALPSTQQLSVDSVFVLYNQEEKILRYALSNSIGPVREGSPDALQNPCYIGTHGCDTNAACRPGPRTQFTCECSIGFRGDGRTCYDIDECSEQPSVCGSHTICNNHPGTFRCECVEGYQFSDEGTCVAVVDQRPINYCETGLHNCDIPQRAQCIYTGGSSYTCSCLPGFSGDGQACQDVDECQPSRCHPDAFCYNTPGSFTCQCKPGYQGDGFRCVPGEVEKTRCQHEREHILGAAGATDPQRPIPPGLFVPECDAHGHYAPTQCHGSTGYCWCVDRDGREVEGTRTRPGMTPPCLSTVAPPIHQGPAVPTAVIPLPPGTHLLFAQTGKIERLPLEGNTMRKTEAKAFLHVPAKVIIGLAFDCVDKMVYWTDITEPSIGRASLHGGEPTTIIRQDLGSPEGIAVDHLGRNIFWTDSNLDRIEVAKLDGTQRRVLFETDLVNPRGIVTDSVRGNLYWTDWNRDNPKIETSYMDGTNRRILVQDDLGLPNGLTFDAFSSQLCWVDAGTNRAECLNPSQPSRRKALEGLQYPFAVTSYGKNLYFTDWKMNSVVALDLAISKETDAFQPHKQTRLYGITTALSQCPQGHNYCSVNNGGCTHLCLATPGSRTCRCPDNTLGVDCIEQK
Procedure: 5) The compound stocks were preincubated with nidogen (10 μl compound stock to 90 μl nidogen solution) and the assay was performed as described in the attached protocol, yielding a final screening concentration of 2.7 μM per compound. The isolation of laminin P1 from human placenta, human nidogen from transfected HEK-293 cells and mouse laminin γ1III 3-5 from HEK-293 cells is described in WO 98/31709. 3.1.1. HTS screening assay (highly sensitive assay variant): Time-Resolved Fluorescence Assay Coating of test tubes Microtiter plates (for example FluoroNunc®) were coated with 75 μl of a 0.1 μg/ml solution of laminin P1 (in 0.159 g of Na2CO3, 0.293 g of NaHCO3, 0.02 g of NaN3/liter, pH 9.2) at room temperature for 1 hour. The solution was then tipped off, and free binding sites were blocked by incubation with 0.5% BSA (in 7.9 g of NaCl, 1.2 g of Na2HPO4, 0.31 g of KCl, 0.23 g of NaH2PO4, 0.04% Tween 20/liter, pH 7.2) at room temperature for 0.5 hour. Completion of the blocking reaction was followed by decantation of the solution and washing once with 250 μl of washing buffer (PBS/0.04% Tween). Sequential inhibition In parallel with the coating, a preincubation of 85-100 μl of a 0.25 nM nidogen solution (recombinantly produced human nidogen) with inhibitor or standard was carried out in a separate reaction vessel (1 hour at room temperature in 7.9 g of NaCl, 1.2 g of Na2HPO4, 0.31 g of KCl, 0.23 g of NaH2PO4, 0.04% Tween 20/liter, 0.5% BSA, pH 7.2). 75 μl of the preincubation (nidogen+inhibitor or standard) were transferred into the coated wells of the microtiter plate and incubated at room temperature for 1 hour. This was followed by washing twice with PBS/0.04% Tween. Detection of the bound nidogen took place by incubation (at room temperature) for 1 hour with 75 μl of a specific antibody preparation obtained from yolks of eggs from a chicken immunized with human nidogen. The IgY fraction was used in a dilution of 1:500 in PBS/0.04% Tween. The complex of nidogen and specifically bound antibodies was, after washing twice with PBS/0.04% Tween, detected by adding anti-chicken IgY-biotin (75 μl of a 1:2500 dilution; Promega, Madison, Wis. 53711, 608-274-4330). An incubation time of 1 hour and washing twice with PBS/0.04% Tween were followed for this purpose by incubation with streptavidin-europium (Wallac; 1 hour at room temperature) and washing twice with PBS/0.04% Tween. It was finally possible, after adding 100 μl of enhancement solution (Wallac) and shaking for 5 minutes, to measure a fluorescence signal in a Victor multilabel counter using the europium protocol. The relation between the amount, of bound nidogen in the solutions with inhibitor and that of nidogen without added inhibitor was found.
CC(C)[C@H](NC(=O)[C@H](C)NC(=O)[C@H](CC(N)=O)NC(=O)[C@@H](NC(=O)[C@@H](N)CC(=O)O)C(c1ccccc1)c1ccccc1)C(=O)NCC(=O)NCCCO [Compound 15, L-Aspartyl-L-(3,3-diphenyl)alanyl-L-asparaginyl-L-alanyl-L-valyl-glycine-3-hydroxypropylamide] (H-D[Dip]NAVG-{NH(3-hydroxypropyl)}) showed an IC50 of 26.3 µM. CC(C)[C@H](NC(=O)[C@H](CO)NC(=O)[C@H](CC(N)=O)NC(=O)[C@@H]1[C@H](c2ccccc2)CCN1C(=O)[C@@H](N)CC(=O)O)C(=O)NCC(=O)NCCCO [Compound 16, L-Aspartyl-L-(3S)-phenylprolyl-L-asparaginyl-L-seryl-L-valyl-glycine-3-hydroxypropylamide] (H-D[X2]NSVG-{NH(3-hydroxypropyl)}) was tested, and the IC50 was 4.28 µM. With CC(C)[C@H](NC(=O)[C@H](CO)NC(=O)[C@H](CC(N)=O)NC(=O)[C@@H]1[C@@H](c2ccccc2)CCN1C(=O)[C@@H](N)CC(=O)O)C(=O)NCC(=O)NCCCO [Compound 17, L-Aspartyl-L-(3R)-phenylprolyl-L-asparaginyl-L-seryl-L-valyl-glycine-3-hydroxypropylamide] (H-D[Pro(3R-Ph)]NSVG-{NH(3-hydroxypropyl)}) the IC50 was 2.27 µM. CC(C)[C@H](NC(=O)[C@H](CO)NC(=O)[C@H](CC(N)=O)NC(=O)[C@H](Cc1cccnc1)NC(=O)[C@@H](N)CC(=O)O)C(=O)NCC(=O)NCCCO [Compound 18, L-Aspartyl-L-3-(3-pyridyl)alanyl-L-asparaginyl-L-seryl-L-valyl-glycine-3-hydroxypropylamide] (H-D[3Pal]NSVG-{NH(3-hydroxypropyl)}) gave an IC50 of 25 µM. CC(C)[C@H](NC(=O)[C@H](CO)NC(=O)[C@H](CC(N)=O)NC(=O)[C@@H](Cc1ccc2ccccc2c1)NC(=O)[C@@H](N)CC(=O)O)C(=O)NCC(=O)NCCCO [Compound 19, L-Aspartyl-D-3-(2-naphthyl)alanyl-L-asparaginyl-L-seryl-L-valyl-glycine-3-hydroxypropylamide] (H-D[d2Nal]NSVG-{NH(3-hydroxypropyl)}) showed an IC50 of 25 µM. CC(C)[C@H](NC(=O)[C@H](CO)NC(=O)[C@H](CC(N)=O)NC(=O)[C@H](CCc1ccccc1)NC(=O)[C@@H](N)CC(=O)O)C(=O)NCC(=O)NCCCO [Compound 20, L-Aspartyl-L-homophenylalanyl-L-asparaginyl-L-seryl-L-valyl-glycine-3-hydroxypropylamide] (H-D[hPhe]NSVG-{NH(3-hydroxypropyl)}) was tested, and the IC50 was 32.5 µM. In the case of CC(C)[C@H](NC(=O)[C@H](CO)NC(=O)[C@H](CC(N)=O)NC(=O)[C@H](Cc1ccc2ccccc2c1)NC(=O)[C@@H](N)CC(=O)O)C(=O)NCC(N)=O [Compound 21, L-Aspartyl-L-3-(2-naphthyl)alanyl-L-asparaginyl-L-seryl-L-valyl-glycine-amide] (H-D[2Nal]NSVG-NH2), the IC50 is reported as 0.34 µM. With CC(C)[C@H](NC(=O)[C@H](CO)NC(=O)[C@H](CC(N)=O)NC(=O)[C@H](Cc1ccc2ccccc2c1)NC(=O)[C@@H](N)CC(=O)O)C(N)=O [Compound 22, L-Aspartyl-L-3-(2-naphthyl)alanyl-L-asparaginyl-L-seryl-L-valine-amide] (H-D[2Nal]NSV-NH2) the IC50 was 0.18 µM. Compound CC(=O)c1ccccc1C(=O)N[C@@H](Cc1ccc2ccccc2c1)C(=O)N[C@@H](CC(N)=O)C(=O)N[C@@H](CO)C(=O)N[C@H](C(=O)NCC(=O)NCCCO)C(C)C [Compound 23] (X1-[2Nal]NSVG-{NH(3-hydroxypropyl)}) has an IC50 of 1.49 µM. With CC(C)[C@H](NC(=O)[C@H](CO)NC(=O)[C@H](CC(N)=O)NC(=O)[C@H](Cc1ccc2ccccc2c1)NC(=O)C[C@H](N)C(=O)O)C(=O)NCC(=O)NCCCO [Compound 25, L-β-Aspartyl-L-3-(2-naphthyl)alanyl-L-asparaginyl-L-seryl-L-valyl-glycine-3-hydroxypropylamide] (βAsp-[2Nal]NSVG-{NH(3-hydroxypropyl)}) the IC50 was 0.23 µM. CC(C)[C@H](NC(=O)[C@H](CO)NC(=O)[C@H](CC(N)=O)NC(=O)[C@H](Cc1ccc2ccccc2c1)NC(=O)CCCC(=O)O)C(=O)NCC(=O)NCCCO [Compound 26, Glutaryl-L-3-(2-naphthyl)alanyl-L-asparaginyl-L-seryl-L-valyl-glycine-3-hydroxypropylamide] (Glutaryl-[2Nal]NSVG-{NH(3-hydroxypropyl)}) showed an IC50 of 0.45 µM. With CC(C)[C@H](NC(=O)[C@H](CO)NC(=O)[C@H](CC(N)=O)NC(=O)[C@H](Cc1ccc2ccccc2c1)NC(=O)[C@H](CC(=O)O)NC(=O)[C@@H](N)CCCNC(N)=O)C(=O)NCC(=O)NCCCO [Compound 27, L-Citrulyl-L-aspartyl-L-3-(2-naphthyl)alanyl-L-asparaginyl-L-seryl-L-valyl-glycine-3-hydroxypropylamide] (H-[Cit]D[2Nal]NSVG-{NH(3-hydroxypropyl)}) the IC50 was 0.44 µM. CC(C)[C@H](NC(=O)[C@H](CO)NC(=O)[C@H](CC(N)=O)NC(=O)[C@H](Cc1ccc2ccccc2c1)NC(=O)[C@H](CC(=O)O)NC(=O)[C@@H](N)CCCNC(=N)N)C(=O)NCC(=O)NCCCO [Compound 28, L-Arginyl-L-aspartyl-L-3-(2-naphthyl)alanyl-L-asparaginyl-L-seryl-L-valyl-glycine-3-hydroxypropylamide] (H-RD[2Nal]NSVG-{NH(3-hydroxypropyl)}) was tested, and the IC50 was 0.15 µM. Work on CC(C)[C@H](NC(=O)[C@H](CO)NC(=O)[C@H](CC(N)=O)NC(=O)[C@H](Cc1ccc2ccccc2c1)NC(=O)[C@H](CC(=O)O)NC(=O)[C@@H](N)CCCCN)C(=O)NCC(=O)NCCCO [Compound 29, L-Lysyl-L-aspartyl-L-3-(2-naphthyl)alanyl-L-asparaginyl-L-seryl-L-valyl-glycine-3-hydroxypropylamide] (H-KD[2Nal]NSVG-{NH(3-hydroxypropyl)}) yielded an IC50 of 0.24 µM. CC(C)[C@H](NC(=O)[C@H](C)NC(=O)[C@H](CC(N)=O)NC(=O)[C@H](Cc1ccc2ccccc2c1)NC(=O)CCC(=O)O)C(=O)NCC(=O)NCCCO [Compound 30, Succinyl-L-3-(2-naphthyl)alanyl-L-asparaginyl-L-alanyl-L-valyl-glycine-3-hydroxypropylamide] (Suc-[2Nal]NAVG-{NH(3-hydroxypropyl)}) showed an IC50 of 0.25 µM. C[C@H](NC(=O)[C@H](CC(N)=O)NC(=O)[C@H](Cc1ccc2ccccc2c1)NC(=O)CCC(=O)O)C(=O)N[C@H](C(N)=O)C(C)(C)C [Compound 32, Succinyl-L-3-(2-naphthyl)alanyl-L-asparaginyl-L-alanyl-L-2-tert.butyl-glycine-amide] (Suc-[2Nal]NA[Tle]-NH2) was tested, and the IC50 was 0.17 µM.
